Test results: patent US20250368616A1, “NITROGEN-CONTAINING HETEROCYCLIC DERIVATIVE INHIBITOR, AND PREPARATION METHOD THEREFOR AND USE THEREOF” (SHANGHAI HANSOH BIOMEDICAL CO., LTD., priority 2021, published 2025)

What was measured:
[1] = target: EGFR del19/T790M/C797S mutant kinase (Homo sapiens, UniProt P00533, C797S/DEL746-750/T790M); test: HTRF kinase assay, EGFR del19/T790M/C797S mutant kinase; assay type: biochemical; conditions: 120 minutes at room temperature
Description: (§1) Test Example 1. Determination of the Inhibitory Effect of the Compounds of the Present Invention on the Activity of EGFR del19/T790M/C797S and EGFR L858R/T790M/C797S Mutant Kinases
(§2) Experimental objective: The objective of this test example is to test the inhibitory activity of the compounds on the activity of EGFR del19/T790M/C797S and EGFR L858R/T790M/C797S mutant kinases.
(§3) Experimental method: This experiment used Cisbio's HTRF kinase assay method (Cisbio #62TK0PEB), wherein a catalytic reaction occurred between the substrate polypeptide TK and ATP in the presence of the tyrosine kinase with EGFR del19/T790M/C797S or EGFR L858R/T790M/C797S mutation, the substance was phosphorylated, and the activity of the kinase was characterized by measuring the content of the phosphorylated substrate generated during the reaction, and the half inhibitory concentration IC50 of the compound on the activity of EGFR del19/T790M/C797S or EGFR L858R/T790M/C797S mutant kinase was obtained.
(§4) Specific Experimental Operations were as Follows: • the kinase reaction was carried out in a white 384-well plate (Perkin Elmer #6008280), and 1-5 μL of compounds of different concentrations which were diluted with 1% DMSO-containing ddH2O were added; to the positive control wells were added 1-5 μL of 1% DMSO-containing ddH2O, followed by 1-5 μL of 0.5-5 nM 4×EGFR del19/T790M/C797S or EGFR L858R/T790M/C797S mutant kinase solution which was diluted with Dilution buffer (5× kinase buffer, MgCl2 6.65 Mm, MnCl2 1.33 mM, DTT 1.33 mM); to the negative control wells were added 1-5 μL of Dilution buffer; to all the wells were added 1-5 μL of 4 μM 4× substrate TK solution which was prepared with 10× Dilution buffer, and finally added 1-5 μL of 24 μM 4×ATP solution which was diluted with Dilution buffer to start the reaction; after reacting at room temperature for 120 minutes, 10 μL of detection solution (TK antibody 16 nM, XL665 0.5 μM) was added to each well, same was reacted at room temperature in the dark for 20 minutes, and then the […] was detected using a BioTek Synergy H1 microplate reader.
(§5) The percent inhibition data for compound-treated wells was calculated according to the positive control wells (DMSO control wells) and negative control wells (no kinase added) on the plate {% inhibition rate=100−[(test compound value−negative control value)]/(positive control value−negative control value)×100}. GraphPad prism was used to fit different concentrations and corresponding percent inhibition rate data to a 4-parameter nonlinear logistic equation to calculate IC50 values.

[2] = test system: Ba/F3 EGFR Del19/T790M/C797S cells; test: Cell proliferation inhibition assay (Cell Titer-Glo), Ba/F3 EGFR Del19/T790M/C797S; assay type: cell-based; conditions: 72 hours, read-out: Ba/F3 EGFR Del19_T790M_C797S IC50
Description: (§6) Test Example 2: Cell Proliferation Inhibition Assay
(§7) Experimental objective: The objective of this test example is to test the inhibitory activity of compounds on the proliferation of different EGFR C797S drug-resistant mutant cell lines Ba/F3 EGFR Del19/T790M/C797S, Ba/F3 EGFR L858R/T790M/C797S, and Ba/F3 EGFR Del19/C797S.
(§8) • Ba/F3 EGFR Del19/T790M/C797S cells were purchased from KYinno Biotechnology Co., Ltd.; • Ba/F3 EGFR Del19/C797S cells were purchased from CoBioer Biosciences Co., Ltd.; • Ba/F3 EGFR L858R/T790M/C797S cells were purchased from CoBioer Biosciences Co., Ltd.; • Cell Titer-Glo was purchased from Promega, with a catalog number of G7573; • RPMI 1640 was purchased from Gibco, with a catalog number of 22400089; • FBS was purchased from Gibco, with a catalog number of 10091148; • cell culture plates were purchased from Corning, with a catalog number of 3610.
(§9) The inhibitory activity of the compound on the proliferation of different EGFR C797S drug-resistant mutant cell lines was detected using the Cell Titer-Glo method. The different cell lines were cultured in RPMI 1640 complete culture medium containing 10% FBS under conditions of 37° C. and 5% CO2, the cells were collected by centrifugation when growing to a certain density, and adjusted to appropriate cell density after counting, the cells were spread on a white 96-well plate at 90 μL/well, and cultured in a 37° C., 5% CO2 incubator overnight, prepared compound solutions of different concentrations were added at 10 μL/well, corresponding solvent controls were set, and all wells were cultured in a 37° C., 5% CO2 incubator for 72 hours, 50 μL of CellTiter-Glo solution was added to each well, shook and mixed evenly, and incubated in the dark for 10 minutes, and a BioTek Synergy H1 microplate reader was used for reading.
(§10) The luminescence signal value was used to calculate the inhibition rate. Graphpad Prism software was used to fit the concentration and inhibition rate to a nonlinear regression curve, so as to obtain the IC50 value, as shown in Tables 3 and 4 below for details.

[3] = test system: Ba/F3 EGFR Del19/C797S cells; test: Cell proliferation inhibition assay (Cell Titer-Glo), Ba/F3 EGFR Del19/C797S; assay type: cell-based; conditions: 72 hours, read-out: Ba/F3 EGFR Del19_C797S IC50
Description: as §6, §7, §8, §9, §10

[4] = target: EGFR L858R/T790M/C797S mutant kinase (Homo sapiens (Human), UniProt P00533, C797S/L858R/T790M); test: HTRF kinase assay, EGFR L858R/T790M/C797S mutant kinase; assay type: biochemical; conditions: 120 minutes at room temperature
Sequence of EGFR L858R/T790M/C797S mutant kinase (P00533 25-1210 T790M/C797S/L858R): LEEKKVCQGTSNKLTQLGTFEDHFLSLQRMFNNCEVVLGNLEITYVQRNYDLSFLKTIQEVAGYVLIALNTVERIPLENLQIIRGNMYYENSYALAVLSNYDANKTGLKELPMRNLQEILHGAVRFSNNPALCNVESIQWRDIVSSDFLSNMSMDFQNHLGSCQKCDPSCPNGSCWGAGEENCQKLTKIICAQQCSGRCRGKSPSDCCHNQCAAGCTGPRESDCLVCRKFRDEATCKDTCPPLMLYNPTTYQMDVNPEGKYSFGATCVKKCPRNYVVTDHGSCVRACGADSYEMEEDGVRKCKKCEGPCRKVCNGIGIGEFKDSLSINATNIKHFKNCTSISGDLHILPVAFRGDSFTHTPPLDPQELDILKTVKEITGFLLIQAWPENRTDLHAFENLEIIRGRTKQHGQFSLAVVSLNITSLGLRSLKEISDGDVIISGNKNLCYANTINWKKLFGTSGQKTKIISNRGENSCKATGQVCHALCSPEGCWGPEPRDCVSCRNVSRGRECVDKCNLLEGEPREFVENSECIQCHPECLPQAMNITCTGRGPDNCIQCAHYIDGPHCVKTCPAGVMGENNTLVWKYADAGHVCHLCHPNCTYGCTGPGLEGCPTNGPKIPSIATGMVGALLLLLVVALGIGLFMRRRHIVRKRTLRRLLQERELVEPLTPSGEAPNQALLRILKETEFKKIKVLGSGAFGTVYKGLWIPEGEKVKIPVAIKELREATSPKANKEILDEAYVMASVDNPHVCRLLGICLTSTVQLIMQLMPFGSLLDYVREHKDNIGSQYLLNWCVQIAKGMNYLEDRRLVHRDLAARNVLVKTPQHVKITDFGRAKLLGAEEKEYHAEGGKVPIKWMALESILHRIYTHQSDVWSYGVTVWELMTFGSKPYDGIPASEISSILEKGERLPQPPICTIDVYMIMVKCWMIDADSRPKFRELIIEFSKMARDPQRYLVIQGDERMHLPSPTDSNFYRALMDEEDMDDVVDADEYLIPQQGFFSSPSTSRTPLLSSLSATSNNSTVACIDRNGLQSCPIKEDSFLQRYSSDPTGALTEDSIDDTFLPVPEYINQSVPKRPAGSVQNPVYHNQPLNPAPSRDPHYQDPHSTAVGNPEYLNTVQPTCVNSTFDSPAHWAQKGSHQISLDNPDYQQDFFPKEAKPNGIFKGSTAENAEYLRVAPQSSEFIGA
Description: as §1, §2, §3, §4, §5

Sequence of EGFR del19/T790M/C797S mutant kinase (P00533 with tags, fused parts or gaps C797S/DEL746-750/T790M limits assumed): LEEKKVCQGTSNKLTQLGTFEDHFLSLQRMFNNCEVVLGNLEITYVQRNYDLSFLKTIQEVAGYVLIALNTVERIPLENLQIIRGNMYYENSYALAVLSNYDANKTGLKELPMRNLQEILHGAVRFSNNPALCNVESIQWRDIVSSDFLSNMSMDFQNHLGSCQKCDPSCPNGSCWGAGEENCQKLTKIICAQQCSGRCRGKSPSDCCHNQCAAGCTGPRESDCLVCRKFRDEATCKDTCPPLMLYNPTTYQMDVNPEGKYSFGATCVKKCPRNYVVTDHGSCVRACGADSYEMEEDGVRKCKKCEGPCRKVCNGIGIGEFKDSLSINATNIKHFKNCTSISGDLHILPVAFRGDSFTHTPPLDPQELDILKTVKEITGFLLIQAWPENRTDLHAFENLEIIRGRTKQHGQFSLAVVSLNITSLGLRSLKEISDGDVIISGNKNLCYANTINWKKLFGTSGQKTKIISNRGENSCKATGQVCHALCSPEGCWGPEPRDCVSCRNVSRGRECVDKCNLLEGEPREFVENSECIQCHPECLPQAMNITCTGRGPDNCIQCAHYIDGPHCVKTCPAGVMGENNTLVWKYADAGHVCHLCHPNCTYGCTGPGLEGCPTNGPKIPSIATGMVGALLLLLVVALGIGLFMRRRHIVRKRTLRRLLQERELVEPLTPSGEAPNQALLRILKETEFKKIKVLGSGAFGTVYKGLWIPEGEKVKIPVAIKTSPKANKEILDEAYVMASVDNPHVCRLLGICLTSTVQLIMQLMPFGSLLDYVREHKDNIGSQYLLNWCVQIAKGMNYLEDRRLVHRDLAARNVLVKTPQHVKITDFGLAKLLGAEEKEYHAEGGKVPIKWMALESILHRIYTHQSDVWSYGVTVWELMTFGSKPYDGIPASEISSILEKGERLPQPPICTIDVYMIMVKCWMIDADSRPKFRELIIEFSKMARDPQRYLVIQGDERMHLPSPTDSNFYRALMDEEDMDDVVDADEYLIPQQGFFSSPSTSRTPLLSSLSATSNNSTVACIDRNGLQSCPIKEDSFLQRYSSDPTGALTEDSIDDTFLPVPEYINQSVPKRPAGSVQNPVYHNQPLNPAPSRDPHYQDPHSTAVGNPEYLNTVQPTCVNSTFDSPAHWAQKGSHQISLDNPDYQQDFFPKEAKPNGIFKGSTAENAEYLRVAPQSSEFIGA

| Structure (SMILES) | IC50 [1] [nM] | IC50 [2] [nM] | IC50 [3] [nM] | IC50 [4] [nM] |
| --- | --- | --- | --- | --- |
| CC(C)c1cnc(N2CC(CS(C)(=O)=O)C2)c2cnc(Nc3ccnc(-c4cnn(S(=O)(=O)C5CC5)c4)n3)cc12 [Example 3, N-(2-(1-(cyclopropylsulfonyl)-1H-pyrazol-4-yl)pyrimidin-4-yl)-5-isopropyl-8-(3-((methanesulfonyl)methyl)azetidin-1-yl)-2,7-diazanaphthalen-3-amine] | 9.4 | 5.5 | 10 | – |
| CC(C)c1ccc(N2C[C@H](CS(C)(=O)=O)[C@H]2C)c2cnc(Nc3ccnc(-c4cn(CCO)nc4Cl)n3)cc12 [Example 11, 2-(3-chloro-4-(4-((5-isopropyl-8-((2R,3S)-2-methyl-3-((methanesulfonyl)methyl)azabut-1-yl)isoquinolin-3-yl)amino)pyrimidin-2-yl)-1H-pyrazol-1-yl)ethanol] | – | 7.2 | 24 | – |
| CC(C)c1ccc(N2C[C@H](CS(C)(=O)=O)[C@H]2C)c2cnc(Nc3ccnc(-c4cn[nH]c4)n3)cc12 [Example 17, N-(2-(1H-pyrazol-4-yl)pyrimidin-4-yl)-5-isopropyl-8-((2R,3S)-2-methyl-3-((methanesulfonyl)methyl)azetidin-1-yl)isoquinolin-3-amine] | 3 | – | – | 0.71 |
| CC(C)c1ccc(N2C[C@H](CS(C)(=O)=O)[C@H]2C)c2cnc(Nc3ccnc(-c4cnn(C(F)F)c4)n3)cc12 [Example 25, N-(2-(1-(difluoromethyl)-1H-pyrazol-4-yl)pyrimidin-4-yl)-5-isopropyl-8-((2R,3S)-2-methyl-3-((methanesulfonyl)methyl)azetidin-1-yl)isoquinolin-3-amine] | – | 14 | 54 | – |
| CC(C)c1ccc(N2C[C@H](CS(C)(=O)=O)[C@H]2C)c2cnc(Nc3ccnc(-c4cnn(CC(F)(F)F)c4)n3)cc12 [Example 26, 5-isopropyl-8-((2R,3S)-2-methyl-3-((methanesulfonyl)methyl)azetidin-1-yl)-N-(2-(1-(2,2,2-trifluoroethyl)-1H-pyrazol-4-yl)pyrimidin-4-yl)isoquinolin-3-amine] | – | – | 78 | 1 |
| CC(C)c1ccc(N2C[C@H](CS(C)(=O)=O)[C@H]2C)c2cnc(Nc3ccnc(-c4cnn(CCO)c4)n3)cc12 [Example 48, 2-(4-(4-((5-isopropyl-8-((2R,3S)-2-methyl-3-((methanesulfonyl)methyl)azetidin-1-yl)isoquinolin-3-yl)amino)pyrimidin-2-yl)-1H-pyrazol-1-yl)ethan-1-ol] | 4.2 | – | 85 | – |
| CC(C)c1ccc(N2C[C@H](CS(C)(=O)=O)[C@H]2C)c2cnc(Nc3ccnc(-c4cncs4)n3)cc12 [Example 54, 5-isopropyl-8-((2R,3S)-2-methyl-3-((methanesulfonyl)methyl)azetidin-1-yl)-N-(2-(thiazol-5-yl)pyrimidin-4-yl)isoquinolin-3-amine] | 7.5 | – | 32 | – |
| Cc1nn(C)cc1-c1nccc(Nc2cc3c(C(C)C)ccc(N4C[C@H](CS(=O)(=O)N(C)C)[C@H]4C)c3cn2)n1 [Example 61, 1-((2R,3S)-1-(3-((2-(1,3-dimethyl-1H-pyrazol-4-yl)pyrimidin-4-yl)amino)-5-isopropylisoquinolin-8-yl)-2-methylazetidin-3-yl)-N,N-dimethyl methanesulfonamide] | – | 9.1 | 24 | – |
| COCC1(Cn2cc(-c3nccc(Nc4cc5c(C(C)C)ccc(N6C[C@H](CS(C)(=O)=O)[C@H]6C)c5cn4)n3)cn2)CC1 [Example 66, 5-isopropyl-N-(2-(1-((1-(methoxymethyl)cyclopropyl)methyl)-1H-pyrazol-4-yl)pyrimidin-4-yl)-8-((2R,3S)-2-methyl-3-((methanesulfonyl)methyl)azetidin-1-yl)isoquinolin-3-amine] | – | – | 78 | 0.17 |
| CC(C)c1ccc(N2C[C@H](CS(C)(=O)=O)[C@H]2C)c2cnc(Nc3ccnc(-c4cn(C5CC5)nc4Cl)n3)cc12 [Example 70, N-(2-(3-chloro-1-cyclopropyl-1H-pyrazol-4-yl)pyrimidin-4-yl)-5-isopropyl-8-((2R,3S)-2-methyl-3-((methanesulfonyl)methyl)azetidin-1-yl)isoquinolin-3-amine] | – | 11 | 10 | – |
| COCCn1cc(-c2nccc(Nc3cc4c(C(C)C)ccc(N5C[C@H](CS(C)(=O)=O)[C@H]5C)c4cn3)n2)c(Cl)n1 [Example 73, N-(2-(3-chloro-1-(2-methoxyethyl)-1H-pyrazol-4-yl)pyrimidin-4-yl)-5-isopropyl-8-((2R,3S)-2-methyl-3-((methanesulfonyl)methyl)azetidin-1-yl)isoquinolin-3-amine] | – | 11 | 8.5 | – |
| CC(C)c1ccc(N2C[C@H](N3CCOC3=O)[C@H]2C)c2cnc(Nc3ccnc(-c4cn(C)nc4Cl)n3)cc12 [Example 74, 3-((2R,3S)-1-(3-((2-(3-chloro-1-methyl-1H-pyrazol-4-yl)pyrimidin-4-yl)amino)-5-isopropylisoquinolin-8-yl)-2-methylazetidin-3-yl)oxazolidin-2-one] | – | 14 | 14 | – |
| CC(C)c1ccc(N2C[C@H](CS(C)(=O)=O)[C@H]2C)c2cnc(Nc3ccnc(-c4cn(C5CCOCC5)nc4Cl)n3)cc12 [Example 78, N-(2-(3-chloro-1-(tetrahydro-2H-pyran-4-yl)-1H-pyrazol-4-yl)pyrimidin-4-yl)-5-isopropyl-8-((2R,3S)-2-methyl-3-((methanesulfonyl)methyl)azetidin-1-yl)isoquinolin-3-amine] | – | 12 | 27 | – |
| CC(C)c1ccc(N2CC(N(C)S(C)(=O)=O)C2)c2cnc(Nc3ccnc(-c4cn(CCO)nc4Cl)n3)cc12 [Example 79, N-(1-(3-((2-(3-chloro-1-(2-hydroxyethyl)-1H-pyrazol-4-yl)pyrimidin-4-yl)amino)-5-isopropylisoquinolin-8-yl)azetidin-3-yl)-N-methyl Methanesulfonamide] | – | 7.7 | 11 | – |
| CC(O)Cn1cc(-c2nccc(Nc3cc4c(C(C)C)ccc(N5C[C@H](CS(C)(=O)=O)[C@H]5C)c4cn3)n2)c(Cl)n1 (stereo partly drawn) [Example 80, 1-(3-chloro-4-(4-((5-isopropyl-8-((2R,3S)-2-methyl-3-((methanesulfonyl)methyl)azetidin-1-yl)isoquinolin-3-yl)amino)pyrimidin-2-yl)-1H-pyrazol-1-yl)propan-2-ol] | – | 10 | 17 | – |
